ChEMBL document CHEMBL5729163, “Substituted cyclohexyl compounds as NOP inhibiiors” (2022)

What follows are compounds tested against Nociceptin receptor (Homo sapiens, UniProt P41146) (assay: Cell-Based NOP Assay: Formula (I) compounds were tested for antagonism of the nociceptin receptor (NOP) in a cell-based cAMP assay, using the LANCE cAMP Detection Kit, Perkin Elmer (Waltham, Mass.). This assay (LANCE cAMP) is a homogeneous, time-resolved fluorescence resonance energy transfer (TR-FRET) immunoassay designed to measure cAMP produced upon modulation of adenylyl cyclase activity by G protein-coupled receptors (GPCRs).ProtocolCells expressing human opioid NOP (ValiScreen cell line, cat #ES-230-C Perkin Elmer (Waltham, Mass.) were dispensed in simulation buffer (5 mM Hepes, 0.1% BSA, 0.5 mM IBMX in Hanks Buffered Saline Solution) at 2.5 μL cells per well (400 cells/well) into a 1536 white TC-treated assay plate. Compound was then added and plates were incubated for 15 minutes at room temperature. To each well was added 2.5 μL of a solution containing forskolin (3 μM final) and nociceptin peptide (390 pM final) diluted in stimulation buffer, and the plates were incubated for 30 minutes at room temperature. To each well was dispensed 5 μL of LANCE Ultra detection (1:300 dilution of anti-cAMP ULight with a 1:100 dilution of Eu-cAMP tracer diluted in cAMP Detection Buffer) reagent, and the plates were incubated for 1 hr at room temperature. The plate was then read on the ViewLux microplate reader (Perkin Elmer, Waltham, Mass.) using the LANCE 1536 protocol with 60 second exposure times and 50 μs delay. This protocol has an excitation wavelength of 340 nm (DUG11 filter) and emission wavelengths of 615 nm (Eu-Donor) and 665 nm (Alexa 647 cAMP antibody acceptor).Data AnalysisData was analyzed, normalized, and visualized using ACAS (John McNeil & Co.). Efficacy was calculated using activity of the vehicle (DMSO) as 0% efficacy and the activity of the corresponding reference positive control (SCH 221510, Tocris Bioscience (Pittsburgh, Pa.), Catalog number 3240) as 100% efficacy. Activity was calculated as the ratio of donor and acceptor emissions. All curve fits and IC50 determinations were performed using a non-linear regression model. The IC50 value was measured as the concentration at which half-maximal response was calculated.).
Sequence of Nociceptin receptor (P41146 whole entry): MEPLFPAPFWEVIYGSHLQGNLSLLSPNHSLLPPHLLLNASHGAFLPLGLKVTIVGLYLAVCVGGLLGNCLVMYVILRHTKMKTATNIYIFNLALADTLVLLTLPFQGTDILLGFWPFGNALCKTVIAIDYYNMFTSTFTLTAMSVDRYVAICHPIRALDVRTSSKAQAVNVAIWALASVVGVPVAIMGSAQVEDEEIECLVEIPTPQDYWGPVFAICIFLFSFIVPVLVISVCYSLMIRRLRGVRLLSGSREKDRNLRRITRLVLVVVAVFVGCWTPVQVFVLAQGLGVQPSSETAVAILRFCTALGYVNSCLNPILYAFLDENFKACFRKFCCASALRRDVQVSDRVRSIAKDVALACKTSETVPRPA

| SMILES | IC50 [nM] |
| --- | --- |
| CNC(=O)C1(NCC[C@H]2CC[C@@H](c3ccc(F)cc3Cl)CC2)CCCC1 | 1 to 10 |
| NC(=O)C1(NCCC2CCC(c3ccccc3Cl)CC2)CCCC1 (stereo not given) | 100 to 1000 |
| Oc1cccc([C@H]2CC[C@H](CCNC3CCOCC3)CC2)c1 | 100 to 1000 |
| CNC(=O)C1(NCC[C@H]2CC[C@@H](c3ccc(F)cc3C(F)(F)F)CC2)CCOCC1 | 1 to 10 |
| CCNC(=O)C1(NCC[C@H]2CC[C@@H](c3ccc(F)cc3Cl)CC2)CCOCC1 | 1 to 10 |
| Fc1ccc(Cl)c(C2CCC(CCNC3CCCCC3)CC2)c1 (stereo not given) | 100 to 1000 |
| CNC(=O)C1(NCC[C@H]2CC[C@H](c3c(F)cncc3Cl)CC2)CCOCC1 | 10 to 100 |
| NC(=O)C1(NCC[C@H]2CC[C@H](c3cc(F)ccc3Cl)CC2)CCOCC1 | 10 to 100 |
| CC(=O)N1CCC(NCC[C@H]2CC[C@@H](c3ccc(F)cc3Cl)CC2)CC1 | 10 to 100 |
| NC(=O)C1(NCC[C@H]2CC[C@H](c3c(F)cc(F)cc3F)CC2)CCOCC1 | 1 to 10 |
| CN(C)C(=O)C1(NCC[C@H]2CC[C@@H](c3ccc(F)cc3Cl)CC2)CCCC1 | 100 to 1000 |
| COCC1(NCC[C@H]2CC[C@@H](c3ccc(F)cc3Cl)CC2)CCNC(=O)C1 (stereo not given in full) | 10 to 100 |
| CN1CCC(NCC[C@H]2CC[C@@H](c3ccc(F)cc3Cl)CC2)CC1=O (stereo not given in full) | 10 to 100 |
| CC1(NCCC2CCC(c3ncccc3Cl)CC2)CCOCC1 (stereo not given) | 100 to 1000 |
| NC(=O)C1(NCC[C@H]2CC[C@@H](c3ccc(F)cc3C(F)(F)F)CC2)CCOCC1 | 1 to 10 |
| Cc1ccncc1[C@H]1CC[C@H](CCNC2CCOCC2)CC1 | 100 to 1000 |
| CNC(=O)C1(NCC[C@H]2CC[C@@H](c3ccc(F)cc3Cl)CC2)CCOCC1 | < 1 |
| CN1CCC(NCCC2CCC(c3c(F)cccc3Cl)CC2)CC1 (stereo not given) | 100 to 1000 |
| NC(=O)C1(NCC[C@H]2CC[C@H](c3ccc(F)cc3F)CC2)CCOCC1 | 100 to 1000 |
| Fc1cnc(C2CCC(CCNC3(C4CC4)CCOCC3)CC2)c(Cl)c1 (stereo not given) | 10 to 100 |
| NC(=O)C1(NCC[C@H]2CC[C@@H](c3cccc(F)c3Cl)CC2)CCOCC1 | 100 to 1000 |
| O=C1C[C@H](NCC[C@H]2CC[C@@H](c3ccc(F)cc3Cl)CC2)CCN1 | < 1 |
| Cc1nccnc1[C@H]1CC[C@@H](CCNC2CCOCC2)CC1 | 100 to 1000 |

| SMILES | IC50 [nM] |
| --- | --- |
| NC(=O)C1(NCC[C@H]2CC[C@@H](c3c(F)cc(F)cc3F)CC2)CCOCC1 | 100 to 1000 |
| Cc1cnccc1C1CCC(CCNC2CCCCC2)CC1 (stereo not given) | 100 to 1000 |
| Cc1cccnc1C1CCC(CCNC2CCCC2)CC1 (stereo not given) | 100 to 1000 |
| COCC1(NCCC2CCC(c3cnccc3C)CC2)CCOCC1 (stereo not given) | 100 to 1000 |
| NC(=O)C1(NCCC2CCC(c3ccc(F)cc3F)CC2)CCCC1 (stereo not given) | 100 to 1000 |
| Cc1cc(F)ccc1[C@H]1CC[C@@H](CCNC2(C(N)=O)CCOCC2)CC1 | 1 to 10 |
| CC1(NCCC2CCC(c3cc(F)ccc3Cl)CC2)CCCC1 (stereo not given) | 100 to 1000 |
| Cc1cc(F)ccc1C1CCC(CCNC2CCCC2)CC1 (stereo not given) | 1 to 10 |
| Cc1cc(F)ccc1C1CCC(CCNC2CCCCC2)CC1 (stereo not given) | 100 to 1000 |
| CO[C@@H]1COCC[C@@H]1NCC[C@H]1CC[C@@H](c2ccc(F)cc2Cl)CC1 | 1 to 10 |
| Fc1ccc([C@H]2CC[C@@H](CCNC3CCOCC3)CC2)c(F)c1 | 1 to 10 |
| O=C1CC(NCC[C@H]2CC[C@@H](c3ccc(F)cc3Cl)CC2)CCN1 (stereo not given in full) | < 1 |
| CNC(=O)C1(NCC[C@H]2CC[C@@H](c3c(F)cncc3Cl)CC2)CCOCC1 | 1 to 10 |
| Fc1ccc(C2CCC(CCNC3CCCCC3)CC2)c(F)c1 (stereo not given) | 10 to 100 |
| Fc1cccc(Cl)c1C1CCC(CCNC2CCCC2)CC1 (stereo not given) | 1 to 10 |
| OC1CCCC1NCC[C@H]1CC[C@@H](c2ccc(F)cc2Cl)CC1 (stereo not given in full) | < 1 |
| Fc1ccc(Cl)c(C2CCC(CCNC3CCCC3)CC2)c1 (stereo not given) | 10 to 100 |
| Cc1cnccc1[C@H]1CC[C@H](CCNC2CCOCC2)CC1 | 100 to 1000 |
| CN1CCC(NCCC2CCC(c3ncc(F)cc3Cl)CC2)CC1 (stereo not given) | 100 to 1000 |
| O=C1NCCC1NCC[C@H]1CC[C@@H](c2ccc(F)cc2Cl)CC1 (stereo not given in full) | 1 to 10 |
| Fc1ccc(C2CCC(CCN[C@H]3CC[C@@H](F)C3)CC2)c(Cl)c1 (stereo not given in full) | < 1 |
| NC(=O)C1(NCC[C@H]2CC[C@H](c3ncc(F)cc3Cl)CC2)CCOCC1 | 10 to 100 |
| Fc1cc(Cl)ccc1C1CCC(CCNC2CCOCC2)CC1 (stereo not given) | 1 to 10 |

| SMILES | IC50 [nM] |
| --- | --- |
| Cc1cc(F)c(F)cc1[C@H]1CC[C@@H](CCN[C@@H]2CCNC(=O)C2)CC1 | 1 to 10 |
| COCC1(NCC[C@H]2CC[C@H](c3ncc(F)cc3Cl)CC2)CCOCC1 | 100 to 1000 |
| CC1(NCCC2CCC(c3ccc(F)cc3F)CC2)CCCC1 (stereo not given) | 100 to 1000 |
| NC(=O)C1(NCC[C@H]2CC[C@H](c3ncccc3Cl)CC2)CCOCC1 | 100 to 1000 |
| Fc1ccc([C@H]2CC[C@H](CCNC3CCOCC3)CC2)c(F)c1 | 1 to 10 |
| O=C(NCC1CC1)C1(NCC[C@H]2CC[C@@H](c3ccc(F)cc3Cl)CC2)CCCC1 | 100 to 1000 |
| CC1(NCCC2CCC(c3ncc(F)cc3Cl)CC2)CCOCC1 (stereo not given) | 100 to 1000 |
| CNC(=O)C1(NCCC2CCC(c3ccc(Cl)cc3F)CC2)CCCC1 (stereo not given) | 100 to 1000 |
| CCNC(=O)C1(NCC[C@H]2CC[C@H](c3ncc(F)cc3Cl)CC2)CCOCC1 | 10 to 100 |
| O=C1C[C@H](NCC[C@H]2CC[C@@H](c3ncc(F)cc3Cl)CC2)CCN1 | 1 to 10 |
| Cc1cc(F)cc(F)c1[C@H]1CC[C@@H](CCNC2(C(N)=O)CCOCC2)CC1 | 1 to 10 |
| CN1CCC(NCCC2CCC(c3ccc(Cl)cc3F)CC2)CC1 (stereo not given) | 100 to 1000 |
| NC(=O)C1(NCC[C@H]2CC[C@@H](c3c(F)cc(F)cc3Cl)CC2)CCOCC1 | 1 to 10 |
| Cc1cc(F)ccc1[C@H]1CC[C@@H](CCNC2CCOCC2)CC1 | < 1 |
| COCC1(NCCC2CCC(c3cc(F)ccc3Cl)CC2)CCOCC1 (stereo not given) | 10 to 100 |
| NC(=O)C1(NCC[C@H]2CC[C@@H](c3ccc(F)cc3F)CC2)CCOCC1 | 10 to 100 |
| CC(=O)N1CCC(NCCC2CCC(c3ccc(F)cc3C)CC2)CC1 (stereo not given) | 100 to 1000 |
| Fc1ccc([C@H]2CC[C@@H](CCNC3CCOCC3)CC2)c(Cl)c1 | < 1 |
| NC(=O)C1(NCC[C@H]2CC[C@@H](c3cc(F)ccc3Cl)CC2)CCOCC1 | 10 to 100 |
| CNC(=O)C1(NCC[C@H]2CC[C@H](c3ccc(F)cc3F)CC2)CCOCC1 | 1 to 10 |
| CC(=O)N1CCC(NCC[C@H]2CC[C@@H](c3ccc(F)cc3Cl)CC2)C1 (stereo not given in full) | 10 to 100 |
| CC1(NCCC2CCC(c3c(F)cccc3Cl)CC2)CCCC1 (stereo not given) | 10 to 100 |
| O=C1C[C@H](NCC[C@H]2CC[C@H](c3ncc(F)cc3Cl)CC2)CCN1 | 1 to 10 |

| SMILES | IC50 [nM] |
| --- | --- |
| NC(=O)C1(NCC[C@H]2CC[C@H](c3cccc(F)c3Cl)CC2)CCOCC1 | 100 to 1000 |
| Fc1cccc(Cl)c1[C@H]1CC[C@@H](CCNC2CCOCC2)CC1 | < 1 |
| CS(=O)(=O)N1CCC(NCC[C@H]2CC[C@@H](c3ccc(F)cc3Cl)CC2)CC1 | 10 to 100 |
| O=C1C[C@@H](NCC[C@H]2CC[C@@H](c3ncc(F)cc3Cl)CC2)CCN1 | 10 to 100 |
| Fc1cccc(C2CCC(CCNC3CCCCC3)CC2)c1Cl (stereo not given) | 10 to 100 |
| Cc1cnccc1[C@H]1CC[C@@H](CCNC2CCOCC2)CC1 | 100 to 1000 |
| COCC1(NCCC2CCC(c3c(F)cccc3Cl)CC2)CCOCC1 (stereo not given) | 10 to 100 |
| Clc1cccnc1[C@H]1CC[C@H](CCNC2CCOCC2)CC1 | 10 to 100 |
| Fc1ccc(C2CCC(CCNC3CCOCC3)CC2)c(Cl)c1 (mixture of isomers) | < 1 |
| Fc1ccc([C@H]2CC[C@@H](CCNC3CCCC3)CC2)c(Cl)c1 | < 1 |
| Cc1cc(F)c(F)cc1[C@H]1CC[C@H](CCN[C@@H]2CCNC(=O)C2)CC1 | 10 to 100 |
| Cc1cccnc1[C@H]1CC[C@H](CCNC2CCOCC2)CC1 | 100 to 1000 |
| CNC(=O)C1(NCC[C@H]2CC[C@H](c3ccc(F)cc3C(F)(F)F)CC2)CCOCC1 | 1 to 10 |
| Cc1cc(F)ccc1C1CCC(CCNC2(C)CCOCC2)CC1 (stereo not given) | 100 to 1000 |
| Cc1cc(F)ccc1[C@H]1CC[C@H](CCNC2(C(N)=O)CCOCC2)CC1 | 10 to 100 |
| CC(=O)N1CCC(NCCC2CCC(c3ccc(Cl)cc3F)CC2)CC1 (stereo not given) | 100 to 1000 |
| Fc1ccc(C2CCC(CCNC3CCCC3)CC2)c(F)c1 (stereo not given) | 10 to 100 |
| CC1(NCCC2CCC(c3ccccc3Cl)CC2)CCOCC1 (stereo not given) | 100 to 1000 |
| NC(=O)C1(NCC[C@H]2CC[C@H](c3ccc(F)cc3C(F)(F)F)CC2)CCOCC1 | 10 to 100 |
| Cc1cc(F)ccc1C1CCC(CCNC2CCOCC2)CC1 (stereo not given) | 1 to 10 |
| Fc1cc(Cl)ccc1C1CCC(CCNC2CCCC2)CC1 (stereo not given) | 10 to 100 |
